Results on 124 compounds are retold here after PubChem BioAssay AID1188 (EPA DSSTox, 2008).

The source made the active and inactive calls.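 The calls were made as follows: active = a concentration killing half the fathead minnows in the acute test was determined; inconclusive = some fish died but not half at top dose; inactive = no fish died even at top dose.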

For this data set, the system named is Fathead minnow (Pimephales promelas) acute toxicity, lethality. Description: DSSTox (EPAFHM) EPA Fathead Minnow Acute Toxicity. The source says: The EPA Fathead Minnow Acute Toxicity database was generated by the U.S. EPA Mid-Continental Ecology Division (MED) for the purpose of developing an expert system to predict acute toxicity from chemical structure based on mode of action considerations. […] A second valuable aspect of this database, from a QSAR modeling perspective, is the inclusion of general mode-of-action (MOA) classifications of acute toxicity response for individual chemicals derived from study results. MOA assignments are biologically based classifications, allowing definition of chemical similarity based upon biological activity instead of organic chemistry functional class as most commonly employed in QSAR study. MOA classifications should strengthen the scientific basis for construction of individual QSARs. However, it is cautioned that the broad MOA categorizations should not be construed to represent a single molecular mechanism; for example, CNS seizure agents and respiratory inhibitors are known to act through a variety of receptors. The EPA Fathead Minnow database and results have been used by EPA MED to build components of the ASTER prediction system, which incorporates MOA-based QSARs for the prediction of aquatic toxicity of environmental and industrial chemicals. Briefly, MOA classifications for individual chemicals, derived from experiments and provided in the EPA Fathead Minnow database, were used to derive substructural rules for assigning a new chemical to an MOA category based solely on chemical structure. Once a new chemical is assigned to an MOA category on this basis, the logP-based QSAR for that MOA category is applied.
The DSSTox EPAFHM database (available from the DSSTox Source URL) includes information pertaining to organic chemical class assignments (ChemClass_FHM), acute toxicity in fathead minnow (LC50_mg), dose-response assessments (LC50_Ratio, ExcessToxicityIndex), behavioral assessments (FishBehaviorTest), joint toxicity MOA evaluations of mixtures (MOA_MixtureTest), and additional MOA evaluation of fish acute toxicity syndrome (FishAcuteToxSyndrome) in rainbow trout. All of these indicators, to the extent available, were considered in the determination of MOA and, additionally, were used to determine a level of confidence in the MOA assignment for each chemical (MOA_Confidence). […] Activity Score is mapping of LOG10 (1/LC50_mmol) activity values spanning activity range [MIN, MAX] onto Integer 1-100 Activity range, where 100 is highest potency and 1 is lowest. If Activity Outcome is "active": Activity Score = 100 * INTEGER[(log10(1/ LC50_mmol) - MIN)/([…])].
Consider `NCCO`, for which the Potency was 33900 µM.

Take `O=[N+]([O-])c1ccc(Oc2ccc(Br)cc2)c([N+](=O)[O-])c1`: the outcome was “inactive; moa not determined either due to lack of toxicity at saturation or late test res”. As to `CCCC=O`, the Potency was 204 µM. On the same count and under the same terms, the value for `O=[N+]([O-])c1ccc(O)cc1C(F)(F)F` was 44.1 µM; that for `CCCCCCCCO` was 104 µM; that for `C#CCCO` was 515 µM.

`Clc1cccc(Cl)c1C(Cl)Cl`: the Potency was 4.22 µM.

For the compound `Clc1ccccc1Cl`, the Potency is 64 µM. Same read-out and setting: the value for `COc1ccc(C=O)c(OC)c1` was 121 µM. On the same count and under the same terms, the value for `CCCCCCCCCN` was 15 µM; that for `O=c1ccc(Cl)c[nH]1` was 8800 µM; that for `COc1c(O)c(Br)cc(C=O)c1[N+](=O)[O-]` was 266 µM. On the same count and under the same terms, the value for `ClCCN1CCCC1` was 900 µM; that for `C=C(CCl)CCl` was 1.52 µM; that for `CC(C)(C)c1ccc(C(N)=O)cc1` was 180 µM. As for `COc1ccc(C(C)=O)c(O)c1`, the Potency is 418 µM. As to `C=CCO`, the Potency is 5.51 µM. Same read-out and setting: the value for `CCOc1ccc(C=O)cc1` was 187 µM. As for `c1ccc(-c2ccc(-c3ccccc3)o2)cc1`, the outcome was “inactive; moa not determined either due to lack of toxicity at saturation or late test res”. Regarding `BrCC1CCCCO1` (centres undefined), the Potency is 1150 µM. On the same count and under the same terms, the value for `O=Cc1ccc(Cl)cc1` was 15.6 µM. Regarding `CCCCCCCCOC(=O)c1ccc(C(=O)OCCCCCCCC)cc1`, the outcome is “inactive; moa not determined either due to lack of toxicity at saturation or late test res”. On to `CNC(=O)Oc1cccc2c1OC(C)(C)C2`, for which the Potency is 3.81 µM. Consider `NCCCN1CCN(CCCN)CC1`, for which the Potency was 15500 µM. Regarding `CCCCOC(=O)CCCCC(=O)OCCCC`, the Potency is 14.1 µM.

With `O=Cc1cc(Br)ccc1O`, the Potency is 6.46 µM.

Regarding `CSCCCCCCSC`, the Potency was 56.6 µM. Still for that read-out and setting: the value for `C=C(C)C(=O)OCC1CCCO1` (centres undefined) was 204 µM; that for `Cc1ccc(N(C)C)cc1` was 362 µM. Same read-out and setting: the value for `NC(=O)c1cccc(Br)c1` was 463 µM; that for `CCCCCC(=O)OCC` was 61.7 µM; that for `CC(N)CN` (centres undefined) was 13600 µM. Still for that read-out and setting: the value for `Cl/C=C/CCl` was 2.15 µM; that for `COc1cc(O)c(C=O)c(OC)c1` was 14.7 µM; that for `CCOCCOCCO` was 198000 µM. For the compound `CCCCOc1ccccc1`, the Potency is 38 µM.

In the case of `Nc1ccccc1C(=O)c1ccc(Cl)cc1`, the Potency is 9.15 µM. Still for that read-out and setting: the value for `Nc1ccc([N+](=O)[O-])cc1Cl` was 116 µM. On the same count and under the same terms, the value for `O=C(Nc1ccccc1)c1ccccc1O` was 18.5 µM; that for `O=C(O)c1ccccc1` was 3360 µM. On to `O=[N+]([O-])c1ccc(O)c([N+](=O)[O-])c1`, for which the Potency is 59.2 µM. Still for that read-out and setting: the value for `Nc1ccccc1` was 1130 µM. On the same count and under the same terms, the value for `CCCC(C)=O` was 14400 µM.

Take `CCCCCCCCCCCCCC=O`: the outcome is “inactive; moa not determined either due to lack of toxicity at saturation or late test res”. `Cc1ccc(N)c(Cl)c1`: the Potency is 254 µM. `CC(=O)c1ccc(Cl)c(Cl)c1Cl`: the Potency is 8.95 µM.

For the compound `NCc1ccccc1`, the Potency is 952 µM. The same measure, in the same setting: the value for `CCCCCCC(C)=O` was 281 µM. For the compound `C1CCCCC1`, the Potency was 53.8 µM.

`OCCOc1ccccc1`: the Potency is 2490 µM.

With `Cc1ccccc1`, the Potency is 368 µM. For `Oc1ccc(Cl)cc1O`, the Potency was 10.9 µM. `CC/C(C)=N/O`: the Potency is 9680 µM. On the same count and under the same terms, the value for `CCCCCCCCCCC(C)=O` was 6.4 µM; that for `CCN1C(=O)CC(=O)N(CC)C1=S` was 22500 µM; that for `CCOC(C)=O` was 2610 µM. On the same count and under the same terms, the value for `CCSCCSCC` was 401 µM; that for `CC(=O)c1ccccc1` was 1350 µM; that for `c1ccc(CN2CCNCC2)cc1` was 269 µM. On the same count and under the same terms, the value for `C=CC(=O)OCCO` was 41.4 µM. On to `CO`, for which the outcome was “active; baseline narcosis”.

Regarding `C[N+](C)(C)C`, the Potency was 4220 µM. The same measure, in the same setting: the value for `O=C(O)c1ccccc1O` was 12500 µM. Regarding `CCCCCCCCCCCC#N`, the Potency was 2.37 µM. On the same count and under the same terms, the value for `CC1(C)CCC(C)(C)O1` was 1310 µM; that for `CC[N+](CC)(CC)Cc1ccccc1` was 707 µM. With `CCc1cccc(CC)c1N(COC)C(=O)CCl`, the Potency was 18.5 µM. The same measure, in the same setting: the value for `CCCSCCCCSCCC` was 14.5 µM; that for `COC(C)(C)C` was 7620 µM; that for `Oc1c(Cl)c(Cl)c(Cl)c(Cl)c1Cl` was 0.912 µM.

In the case of `CCCCCCOc1ccc(C=O)cc1OC`, the Potency was 11.3 µM. Turning to `N#Cc1cc(I)c(O)c(I)c1`, the Potency is 18.3 µM. As to `c1ccc(-c2ccncc2)cc1`, the Potency is 104 µM.

For `C=Cc1ccc(C(C)(C)C)cc1`, the Potency is 3.06 µM. For the compound `CC(C)O`, the Potency is 144000 µM. Same read-out and setting: the value for `c1ccc(Nc2ccccc2)cc1` was 22.4 µM; that for `CCc1ccc(C)nc1` was 669 µM; that for `NC(=O)c1ccc(Cl)cc1Cl` was 503 µM. Same read-out and setting: the value for `CCC#N` was 27600 µM; that for `C#CC(C)(C)O` was 39100 µM. As for `CCC(C)=O`, the Potency was 44700 µM. In the case of `Cl[C@@H]1CCCC[C@H]1Cl`, the Potency was 120 µM. For `C=CC(=O)OCCCCCCCCCCCC`, the outcome is “inactive; moa not determined either due to lack of toxicity at saturation or late test res”.

Consider `CCCCCCCCOC(=O)c1cccc(C(=O)OCCCCCCCC)c1`, for which the outcome was “inactive; moa not determined either due to lack of toxicity at saturation or late test res”.

In the case of `Cc1ccccc1C#N`, the Potency is 382 µM. Still for that read-out and setting: the value for `C/C=N/O` was 1290 µM. On the same count and under the same terms, the value for `O=[N+]([O-])c1ccc(F)cc1` was 201 µM; that for `CCOC(=O)c1ccccc1O` was 122 µM. On the same count and under the same terms, the value for `Nc1ccc([N+](=O)[O-])cc1[N+](=O)[O-]` was 80.8 µM; that for `CCC(C)n1c(=O)[nH]c(C)c(Br)c1=O` (centres undefined) was 712 µM. Consider `ClC(Cl)(Cl)C(Cl)(Cl)Cl`, for which the Potency is 6 µM. On the same count and under the same terms, the value for `OCCNCCO` was 44800 µM; that for `OC(c1ccc(Cl)cc1)(c1ccc(Cl)cc1)C(Cl)(Cl)Cl` was 1.67 µM; that for `N#CCCl` was 17.8 µM. On the same count and under the same terms, the value for `CC(C)c1ccccc1` was 52.6 µM; that for `CNC(=O)Oc1ccc(C(C)(C)C)cc1` was 48.2 µM. Consider `CCCCCN`, for which the Potency is 2030 µM.

`CC(C)[C@H](C(=O)OC(C#N)c1cccc(Oc2ccccc2)c1)c1ccc(OC(F)F)cc1` (some centres undefined): the Potency is 0.000421 µM. `Oc1ccc(Oc2ccccc2)cc1`: the Potency is 26.6 µM. The same measure, in the same setting: the value for `CC(Cl)(Cl)Cl` was 355 µM.

In the case of `C#CC(O)CCCC` (centres undefined), the Potency is 15.7 µM. Same read-out and setting: the value for `Cc1nc(C)c(C)o1` was 4040 µM; that for `CC(C)(c1cc(Cl)c(O)c(Cl)c1)c1cc(Cl)c(O)c(Cl)c1` was 3.63 µM; that for `O=Cc1c(F)cccc1Cl` was 59.3 µM.

In the case of `CCCCC(CC)COC(=O)c1ccccc1C(=O)OCC(CC)CCCC` (centres undefined), the outcome was “inactive; moa not determined either due to lack of toxicity at saturation or late test res”. As to `CCCCCCCCCCN`, the Potency is 6.55 µM. Consider `O=Cc1c(F)c(F)c(F)c(F)c1F`, for which the Potency was 5.61 µM. On the same count and under the same terms, the value for `CC(C)=O` was 123000 µM.

Regarding `CC(=O)Nc1ccccc1O`, the Potency was 179 µM. On the same count and under the same terms, the value for `CCCCCCCCOc1ccccc1NC(C)=O` was 1.71 µM; that for `COP(=S)(OC)SCn1nnc2ccccc2c1=O` was 0.202 µM. On the same count and under the same terms, the value for `c1ccncc1` was 1260 µM; that for `CC1(C)[C@H]2CC[C@]1(C)[C@H](O)C2` was 410 µM; that for `CC(=O)c1ccncc1` was 1390 µM.

As to `C=Cn1c2ccccc2c2ccccc21`, the Potency is 0.0166 µM. Consider `COC(=O)c1ccc(Cl)cc1`, for which the Potency is 64 µM.

On to `CCCCC(=O)CCCC`, for which the Potency was 218 µM. On the same count and under the same terms, the value for `ClCC(Cl)Cl` was 612 µM; that for `CC(C)(C)c1cc(C(C)(C)C)c(O)c(C(C)(C)C)c1` was 0.232 µM; that for `c1ccc2c(c1)oc1ccccc12` was 8.92 µM.

As for `CC(C)CO`, the Potency was 19300 µM. Consider `CCCCCCC1CCC(=O)O1` (centres undefined), for which the Potency is 106 µM. Regarding `C#CC(O)CCCCC` (centres undefined), the Potency is 3.27 µM. The same measure, in the same setting: the value for `CCCO` was 75700 µM.
